Results on 81 molecules are retold here after the METLIN SMRT retention time set (Domingo-Almenara et al. 2019).

The data set is described as follows: gradient 5% acetonitrile 3 min, to 50% in 2 min, to 85% in 15 min, held 3 min, 100 µL/min. As to conditions: column: Zorbax Extend-C18 2.1 x 50 mm; eluents: water / acetonitrile, 0.1% formic acid. A digest of the protocol:
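The mobile phases were water and acetonitrile, each with 0.1% formic acid, pumped at 100 μL/min through a Zorbax Extend-C18 column (2.1 × 50 mm, 1.8 μm). Pure standards were injected as mixtures of ~100 molecules and detected by a quadrupole time-of-flight mass spectrometer in positive and negative ionization mode. Retention time came from computationally picked adduct peaks, each inspected by hand.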
`Cc1cccc2c(=O)n(C3CCN(C(=O)Nc4ccc5c(c4)OCCO5)CC3)cnc12` had an RP-LC retention time of 766 s. In turn, `CC(C)c1noc(-c2ccc(-n3cnc(C(=O)NCC4CC4)c3)nc2)n1` returned an RP-LC retention time of 839 s. In the case of `CCCCN(CCCC)c1nc(-c2ccccc2)nc2ccccc12`, the RP-LC retention time was 976 s. In turn, `CC(C)CC(=O)Nc1cc2c(cc1S(=O)(=O)c1ccccc1)n(C)c(=O)n2C` returned an RP-LC retention time of 786 s.

In the case of `Cc1ccsc1C(=O)Nc1cnc(-c2ccc(Cl)cc2)nc1`, the RP-LC retention time turned out to be 1110 s. As to `COc1ccccc1NC(=O)C1CCN(S(C)(=O)=O)c2ccccc2O1` (stereo unspecified), the RP-LC retention time was found to be 916 s. As for `O=C(c1cn2nc(Cl)ccc2n1)N1CCN(c2ccc(F)cc2)CC1`, the RP-LC retention time came out at 826 s.

In turn, `CC1(C(=O)NCc2ccc(Cl)cc2)CN(S(C)(=O)=O)CC(=O)N1c1ccc(F)cc1` (stereo unspecified) gave an RP-LC retention time of 800 s.

For `Cc1ccc2nc(N3CCN(Cc4ccccc4)CC3)c(-c3noc(C)n3)cc2c1`, the RP-LC retention time came to 686 s.

Turning to `CC(C)Cc1nc2nccc(-c3ccc(F)cc3)n2n1`, the RP-LC retention time was found to be 886 s. Under `O=C(CCC(=O)N1CC2CCCN2c2ccccc21)NCCc1cccs1` (stereo unspecified) stands 906 s. Regarding `Cc1cc(C)cc(NC(=O)Nc2nccn(-c3cccc(F)c3)c2=O)c1`, the RP-LC retention time came to 1030 s.

In the case of `O=S(=O)(NCc1ccccc1)c1ccc2c(c1)-c1oncc1CO2`, the RP-LC retention time was 860 s.

Regarding `O=c1c2sccc2n(Cc2nc(-c3ccc(Br)cc3)no2)c(=O)n1Cc1ccccc1`, the RP-LC retention time is 1200 s. Next, `CCOc1ccc2nc(C(=O)NC3CC3)cn2n1`: 697 s; `COc1ccc(NC(=O)C2CCCN(c3ccc(=O)n(-c4ccc(F)cc4)n3)C2)cc1` (stereo unspecified): 828 s; `Cc1ccc2nc(-c3c(F)cccc3Cl)c(Nc3ccccc3C)n2c1`: 777 s. In the case of `O=C(O)c1cc(NS(=O)(=O)c2ccccc2)ccc1N1CCCC(CN2CCCC2)C1` (stereo unspecified), the RP-LC retention time is 927 s. Next, `O=C(Cn1nc2c(SC3CCCCC3)nccn2c1=O)N1CCN(c2ccc(F)cc2)CC1`: 1080 s; `O=C1CN(C(=O)CCC[C@@H]2[C@H]3CCCN4CCC[C@@H](CN2C(=O)c2cccnc2)[C@@H]34)CCN1`: 629 s. `CCCNC(=O)c1cn(-c2ccc(-c3nc(C4CC4)no3)cn2)cn1` had an RP-LC retention time of 815 s. For the molecule `CCCNC(=O)c1cnn(-c2cc(-c3nc(CC)no3)ccn2)c1C`, the RP-LC retention time was 849 s. Next, `O=C(NCCN1C(=O)C2(CCCCC2)C1c1ccccc1)Nc1ccccc1F` (stereo unspecified): 965 s. Next, `COc1ccccc1-c1nnc(-c2cc(S(=O)(=O)N(C)C)ccc2Cl)o1`: 904 s; `CCc1ccc(S(=O)(=O)NCCc2sc(C)nc2C)s1`: 647 s. As to `Cc1nc2cccnc2n1CCN1CCN(C(=O)Nc2cccc(Cl)c2)CC1`, the RP-LC retention time worked out at 604 s. Under `CC1=C(c2ccccc2)S(=O)(=O)N=C1N1CCCN(C(=O)c2cccc(F)c2)CC1` stands 847 s; under `O=C(C1CCC(=O)N1S(=O)(=O)c1ccccc1)N1CCN(c2ccccn2)CC1` (stereo unspecified), 602 s; under `Cc1cccc(Sc2nccnc2N2CCCC(C(=O)NCc3ccccc3C)C2)c1` (stereo unspecified), 1150 s. Next, `O=C(c1nccc2ccccc12)N1CCC(OCC2CC2)C1` (stereo unspecified): 722 s.

Turning to `Cc1ccccc1S(=O)(=O)N1CCC(n2cnnc2C2CC2)CC1`, the RP-LC retention time was 706 s. Molecule `CCOC(=O)c1csc(NC(=O)c2ccccc2[N+](=O)[O-])n1` yielded an RP-LC retention time of 721 s. On to `CCCCN(C)C(=O)Cn1c(C(C)NC(=O)c2ccco2)nc2ccccc21` (stereo unspecified), for which the RP-LC retention time turned out to be 655 s. Under `CCOCCCNC(=O)c1c(OCC)cc(=O)n2c1CCCCC2` stands 621 s; under `CCN1CCN(C(=O)C2CCN(c3nc4ccc(-c5ccsc5)nc4s3)CC2)CC1`, 666 s; under `CN1C(=O)c2cccn2CC1C(=O)NCc1ccc2c(c1)OCO2` (stereo unspecified), 657 s.

`CCCn1cc(C(=O)N2CCN(C3CCCCC3)CC2)c2cccnc21`: the RP-LC retention time came out at 603 s. In turn, `COc1ccc(S(=O)(=O)N2CCC(C(=O)Nc3nnc(C4CCCO4)o3)CC2)cc1` (stereo unspecified) displayed an RP-LC retention time of 658 s.

Turning to `O=C(Cn1cnc2nc(N3CCC(C(=O)NC4CC4)CC3)sc2c1=O)NCCC1=CCCCC1`, the RP-LC retention time was 698 s.

`CC(C)NC(=O)c1n[nH]c2c1CCCCCC2` had an RP-LC retention time of 754 s.

Turning to `Cc1cc(C(=O)N2CC3CC(C2)c2cccc(=O)n2C3)c(C)o1` (stereo unspecified), the RP-LC retention time was 590 s. For the molecule `Cc1oc(C2CCN(S(=O)(=O)c3ccccc3F)CC2)nc1C(=O)N(C)C`, the RP-LC retention time was found to be 781 s. `Cc1ccc(-c2cc3n(n2)CCCN(C(=O)c2cc(CN4CCOCC4)on2)C3)o1` came in with an RP-LC retention time of 617 s. The molecule `Nc1ccccc1Sc1cc(Cl)nnc1Cl` gave an RP-LC retention time of 983 s. Under `Cc1ccc(C(=O)N2CCN(c3nc(CN4CCOCC4)cs3)CC2)cc1` stands 651 s; under `O=C(CCC1CCCC1)Nc1nc(-c2ccc3ccccc3c2)cs1`, 1340 s; under `CN(C)CCC(c1ccccc1)c1ccccn1` (stereo unspecified), 580 s. Under `COc1ccc(-c2noc(CNC(=O)c3cc(C)nc4ccccc34)n2)cc1OC` stands 652 s; under `Cn1cc2c3c(cccc31)CN(C(=O)Nc1ccc(Br)cc1F)CC2`, 1000 s; under `CCc1ccc(-c2nc(-c3ccc(-n4ccnc4)nc3)no2)cc1`, 882 s. Next, `O=C(NCCn1c(C(F)(F)F)nc2cccnc21)c1ccc(Br)o1`: 740 s; `COC(=O)N1CCc2ccccc2C1C(=O)NCc1ccco1` (stereo unspecified): 715 s.

With `COc1ccc(-c2noc(C3CC(=O)N(c4ccc(C)c(C)c4)C3)n2)cc1OC` (stereo unspecified), the RP-LC retention time stood at 928 s. Next, `CC(C)c1nnc(-c2coc(S(=O)(=O)N3CCC(N4CCCCC4)CC3)c2)o1`: 625 s; `CCCCN(C)C(=O)c1cc2c(s1)N(CC)CCCC2`: 1100 s. Under `O=C(NCc1ccccc1Br)c1ccc(-c2cccnc2)nc1` stands 697 s; under `COc1ccc(-c2cc3c(=O)n(Cc4cc(C)ccc4C)ccn3n2)cc1OC`, 1010 s. Under `O=C(Cc1ccsc1)N1CCc2cc(-c3csc(C4CC4)n3)ccc21` stands 1120 s; under `COc1cc(NC(=O)C2CCCN(c3nc(C)nc4oc(C)c(C)c34)C2)cc(OC)c1` (stereo unspecified), 915 s; under `Cc1nc(C)c(C(=O)N2CCC(N3C[C@H](O)C[C@H]3C(=O)NC3CCCCC3)CC2)s1`, 574 s. As to `Cc1[nH]c(C)c(S(=O)(=O)N2CCN(c3ccccn3)CC2)c1C(=O)N1CCCC1`, the RP-LC retention time worked out at 586 s. Under `Clc1cccc(-n2cc(-c3noc(-c4ccc5c(c4)OCO5)n3)nn2)c1` stands 1100 s. Under `COCCCNC(=O)c1sc2ncn(CC(=O)N3CC(C)CC(C)C3)c(=O)c2c1C` (stereo unspecified) stands 713 s.

Molecule `COC(=O)c1sccc1NC(=O)C1CCCN(c2ncnc3c2nc2n3CCCCC2)C1` (stereo unspecified) yielded an RP-LC retention time of 922 s.

Turning to `Cc1csc(NC(=O)CSc2ccc(-c3cccnc3)nn2)n1`, the RP-LC retention time is 589 s. Under `CCNC(=O)c1nc(C(=O)NCCC(C)C)cs1` stands 771 s; under `CN(C)CCN(C(=O)CN1C(=O)c2ccccc2C1=O)c1nc2ccc(Cl)cc2s1`, 616 s; under `COc1cc(-c2nc(Cn3ccn4nc(-c5ccccc5)cc4c3=O)c(C)o2)cc(OC)c1OC`, 990 s. Under `CC(C)Oc1ccc(CNC(=O)c2cc(-c3ccncc3)cn2C)cc1` stands 640 s. Under `Cc1cccc(NC(=O)Cn2cc(C(=O)N3CCCC3)c(=O)c3ccc(C)nc32)c1` stands 698 s; under `CCOc1ccc2ncc(S(=O)(=O)c3ccc(C)c(C)c3)c(N3CCN(CC)CC3)c2c1`, 693 s. In turn, `Cc1cccc(NC(=O)NC2CCN(c3ccc(F)cc3)C2=O)c1` (stereo unspecified) returned an RP-LC retention time of 830 s.

For the molecule `CC(C)CCNC(=O)N1CCN(c2cc(-c3ccccc3)ncn2)CC1`, the RP-LC retention time came to 658 s. In turn, `CCOC(=O)N1CCN(C(=O)CCc2csc(NC(=O)c3ccc(F)cc3)n2)CC1` gave an RP-LC retention time of 713 s. Next, `CC(=O)NCCSc1c(-c2ccc(Cl)cc2)[nH]c2ccccc12`: 800 s. As for `O=C1C(c2cccs2)N(Cc2ccc3c(c2)OCO3)C(=O)CN1c1ccccc1` (stereo unspecified), the RP-LC retention time worked out at 899 s. Under `CCCN1C(=O)COc2cc(-c3noc(C(=O)NCCC(C)C)n3)ccc21` stands 1060 s. Next, `COc1ccc(-c2cn3ccn(-c4cccc(F)c4)c(=O)c3n2)cc1`: 821 s; `CCN(c1ccccc1)S(=O)(=O)c1ccc(C(=O)Nc2cc(C)nn2C(C)C)cc1`: 858 s.

`CN(CCc1noc(-c2ccc(C(=O)NC3CCCC3)cc2)n1)C(=O)c1ccccc1F` yielded an RP-LC retention time of 839 s. For `Cc1nc2cc3c(cc2n1CC(=O)NCCOc1ccc(Cl)cc1)OCCO3`, the RP-LC retention time was 674 s.
